Reference: patent publication US5051253A, “Use of polyacrylates to reduce proteolytic activity in the human intestinal tract” (Reckitt & Colman Products Limited, priority 1988, dated 1991)
Where two headings read alike, the source gives them in different places.

Tested on: faecal proteolytic activity
Assay: Human faecal proteolytic activity (in-vitro), succinyl albumin substrate
Format: biochemical
Procedure: Human faecal extracts (from asymptomatic volunteers) were obtained by suspending samples of stool in 4 volumes of M/15M KH2 PO4 /Na2 HPO4 pH 7.5 containing 50 mM NaCl and centrifuging at 10,000 g for 15 minutes at 4° C. The supernatant was retained as the faecal extract.
Proteolytic activity was measured using a modification of the method of Lin et al, J.Biol.Chem. 244 (4), 789-793 (1969), i.e. a sensitive trinitrobenzene sulphonic acid assay for formation of new peptide N-terminals using succinyl albumin as substrate. Faecal extract containing one unit of protease activity (equivalent to 1 μg trypsin) was mixed with 0.5 ml buffer (M/15 phosphate pH 7.5) or inhibitor. Substrate (0.5 ml, 8 mgml^-1 succinyl albumin) was added to start the reaction and samples were incubated for 30 minutes at 37° C. Four per cent (w/v) sodium bicarbonate (0.5 ml) and 0.05% (w/v) trinitrobenzene sulphonic acid were added to trinitrophenylate the free amino groups formed and samples were incubated at 50° C. for 10 minutes to develop colour.
10% (w/v) Sodium dodecyl sulphate (0.5 ml) and 1M HCl (0.25 ml) were added to complete the reaction. Absorbance at 340 nm was measured. All samples were compared with heat inactivated faecal extract controls (100° C., 10 minutes).
A linear increase in N-terminals formed by proteolytic cleavage of peptide bonds was found over the first 30 minutes of digestion. […] Proteolytic activity in faecal extracts against succinyl albumin was inhibited by soybean trypsin inhibitor (1 μg) and P.M.S.F. (1 mM) but not by iodoacetamide (50 mM) or Na2 E.D.T.A. (10 mM). In view of this, levels of faecal protease activity were subsequently quantified as equivalents of porcine pancreatic trypsin activity by weight.

O=S(=O)(F)Cc1ccccc1 [P.M.S.F., phenylmethylsulphonyl fluoride]
Inhibition of proteolytic activity in faecal extracts against succinyl albumin (1 mM): inhibited

NC(=O)CI [iodoacetamide]
Inhibition of proteolytic activity in faecal extracts against succinyl albumin (50 mM): not

O=C(O)CN(CCN(CC(=O)O)CC(=O)O)CC(=O)O [Na2 E.D.T.A.]
Inhibition of proteolytic activity in faecal extracts against succinyl albumin: not

B1: soybean trypsin inhibitor (protein, UniProt P01070 25-205, looked up)
Trypsin inhibitor A: DFVLDNEGNPLENGGTYYILSDITAFGGIRAAPTGNERCPLTVVQSRNELDKGIGTIISSPYRIRFIAEGHPLSLKFDSFAVIMLCVGIPTEWSVVEDLPEGPAVKIGENKDAMDGWFRLERVSDDEFNNYKLVFCPQQAEDDKCGDIGISIDHDDGTRRLVVSKNKPLVVQFQKLDKESL
Inhibition of proteolytic activity in faecal extracts against succinyl albumin (1 μg): inhibited
